From ChEMBL document CHEMBL2016457, “Discovery of potent and orally bioavailable 17β-hydroxysteroid dehydrogenase type 3 inhibitors” (Bioorg Med Chem, 2012)
The source made the active and inactive calls. The rule behind the calls is not given here.

Key:
[1] = molecular target: T1, Estrogen receptor (Homo sapiens) (UniProt P03372); assay: Agonist activity at human Estrogen receptor ERalpha expressed in human HeLa cells assessed as DHT-induced response after 40 hrs by luciferase/beta-galactosidase-based reporter gene assay; type: functional, cell-based
T1 sequence (whole entry): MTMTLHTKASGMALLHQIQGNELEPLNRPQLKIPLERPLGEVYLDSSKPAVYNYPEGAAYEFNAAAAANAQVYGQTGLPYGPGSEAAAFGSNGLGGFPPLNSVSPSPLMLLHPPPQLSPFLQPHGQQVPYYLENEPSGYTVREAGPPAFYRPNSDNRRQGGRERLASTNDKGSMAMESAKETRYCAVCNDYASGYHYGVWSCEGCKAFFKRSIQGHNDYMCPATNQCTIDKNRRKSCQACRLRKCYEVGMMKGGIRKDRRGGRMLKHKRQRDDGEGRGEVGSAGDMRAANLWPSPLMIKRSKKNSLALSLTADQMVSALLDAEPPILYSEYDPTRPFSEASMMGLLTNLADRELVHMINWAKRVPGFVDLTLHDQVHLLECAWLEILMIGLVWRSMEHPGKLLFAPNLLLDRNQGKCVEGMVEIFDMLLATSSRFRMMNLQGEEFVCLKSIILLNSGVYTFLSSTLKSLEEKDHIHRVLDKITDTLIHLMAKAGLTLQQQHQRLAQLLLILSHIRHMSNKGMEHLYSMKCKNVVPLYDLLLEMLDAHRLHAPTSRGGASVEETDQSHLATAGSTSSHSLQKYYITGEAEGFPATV

[2] = molecular target: T2, 17-beta-hydroxysteroid dehydrogenase type 2 (Homo sapiens) (UniProt P37059); assay: Inhibition of human recombinant 17-beta-HSD2 expressed in human HeLa cells using estradiol as substrate preincubated for 30 mins prior substrate addition measured after 120 mins by spectrophotometry; type: cell-based
T2 sequence (whole entry): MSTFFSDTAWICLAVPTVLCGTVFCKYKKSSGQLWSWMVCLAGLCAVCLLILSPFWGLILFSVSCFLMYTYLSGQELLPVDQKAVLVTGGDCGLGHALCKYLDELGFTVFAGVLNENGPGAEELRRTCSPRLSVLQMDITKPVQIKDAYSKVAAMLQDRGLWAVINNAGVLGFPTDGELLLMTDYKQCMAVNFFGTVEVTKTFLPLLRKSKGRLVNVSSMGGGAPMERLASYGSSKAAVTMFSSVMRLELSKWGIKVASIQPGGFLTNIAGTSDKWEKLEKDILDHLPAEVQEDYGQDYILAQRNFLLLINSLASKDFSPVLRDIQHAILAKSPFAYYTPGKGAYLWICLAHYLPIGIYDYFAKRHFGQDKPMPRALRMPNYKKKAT

[3] = molecular target: T3, Glucocorticoid receptor (Homo sapiens) (UniProt P04150); assay: Antagonist activity at human GR receptor expressed in human HeLa cells assessed as inhibition of DHT-induced response after 40 hrs by luciferase/beta-galactosidase-based reporter gene assay; type: functional, cell-based
T3 sequence (whole entry): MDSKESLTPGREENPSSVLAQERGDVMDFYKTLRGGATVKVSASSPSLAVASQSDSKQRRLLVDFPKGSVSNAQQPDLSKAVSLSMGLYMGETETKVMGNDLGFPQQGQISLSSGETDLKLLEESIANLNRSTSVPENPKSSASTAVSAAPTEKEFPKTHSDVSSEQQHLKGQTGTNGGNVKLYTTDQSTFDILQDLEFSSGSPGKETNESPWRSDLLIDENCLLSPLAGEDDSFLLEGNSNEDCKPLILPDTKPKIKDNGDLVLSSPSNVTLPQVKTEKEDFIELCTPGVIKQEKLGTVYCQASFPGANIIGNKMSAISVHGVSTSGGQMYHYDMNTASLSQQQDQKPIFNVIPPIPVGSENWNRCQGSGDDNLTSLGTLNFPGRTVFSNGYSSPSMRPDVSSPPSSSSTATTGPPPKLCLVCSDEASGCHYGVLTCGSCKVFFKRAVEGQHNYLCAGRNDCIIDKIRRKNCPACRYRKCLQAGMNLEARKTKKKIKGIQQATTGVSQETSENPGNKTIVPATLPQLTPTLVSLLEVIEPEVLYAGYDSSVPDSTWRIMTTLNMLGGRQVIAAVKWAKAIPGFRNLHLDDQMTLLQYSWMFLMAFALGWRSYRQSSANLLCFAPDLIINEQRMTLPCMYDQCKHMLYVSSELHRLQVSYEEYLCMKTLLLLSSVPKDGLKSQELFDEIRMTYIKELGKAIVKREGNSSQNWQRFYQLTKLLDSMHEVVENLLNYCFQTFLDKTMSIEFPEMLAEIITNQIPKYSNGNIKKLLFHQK

[4] = molecular target: T4, 17-beta-hydroxysteroid dehydrogenase type 1 (Homo sapiens) (UniProt P14061); assay: Inhibition of human recombinant 17-beta-HSD1 expressed in human HeLa cells using estrone as substrate preincubated for 30 mins prior substrate addition measured after 120 mins by spectrophotometry; type: cell-based
T4 sequence (whole entry): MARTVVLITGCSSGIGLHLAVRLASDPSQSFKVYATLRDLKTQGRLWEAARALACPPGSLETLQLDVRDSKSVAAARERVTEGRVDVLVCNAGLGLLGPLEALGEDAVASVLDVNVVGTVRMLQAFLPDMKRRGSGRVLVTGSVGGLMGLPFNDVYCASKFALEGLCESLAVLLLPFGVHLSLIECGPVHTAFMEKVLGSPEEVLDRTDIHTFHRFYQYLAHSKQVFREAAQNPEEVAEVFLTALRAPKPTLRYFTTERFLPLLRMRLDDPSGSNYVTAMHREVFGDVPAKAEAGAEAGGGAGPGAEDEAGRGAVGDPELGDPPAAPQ

[5] = molecular target: T5, Androgen receptor (Homo sapiens) (UniProt P10275); assay: Agonist activity at human androgen receptor expressed in human HeLa cells assessed as DHT-induced response after 40 hrs by luciferase/beta-galactosidase-based reporter gene assay; type: functional, cell-based
T5 sequence (whole entry): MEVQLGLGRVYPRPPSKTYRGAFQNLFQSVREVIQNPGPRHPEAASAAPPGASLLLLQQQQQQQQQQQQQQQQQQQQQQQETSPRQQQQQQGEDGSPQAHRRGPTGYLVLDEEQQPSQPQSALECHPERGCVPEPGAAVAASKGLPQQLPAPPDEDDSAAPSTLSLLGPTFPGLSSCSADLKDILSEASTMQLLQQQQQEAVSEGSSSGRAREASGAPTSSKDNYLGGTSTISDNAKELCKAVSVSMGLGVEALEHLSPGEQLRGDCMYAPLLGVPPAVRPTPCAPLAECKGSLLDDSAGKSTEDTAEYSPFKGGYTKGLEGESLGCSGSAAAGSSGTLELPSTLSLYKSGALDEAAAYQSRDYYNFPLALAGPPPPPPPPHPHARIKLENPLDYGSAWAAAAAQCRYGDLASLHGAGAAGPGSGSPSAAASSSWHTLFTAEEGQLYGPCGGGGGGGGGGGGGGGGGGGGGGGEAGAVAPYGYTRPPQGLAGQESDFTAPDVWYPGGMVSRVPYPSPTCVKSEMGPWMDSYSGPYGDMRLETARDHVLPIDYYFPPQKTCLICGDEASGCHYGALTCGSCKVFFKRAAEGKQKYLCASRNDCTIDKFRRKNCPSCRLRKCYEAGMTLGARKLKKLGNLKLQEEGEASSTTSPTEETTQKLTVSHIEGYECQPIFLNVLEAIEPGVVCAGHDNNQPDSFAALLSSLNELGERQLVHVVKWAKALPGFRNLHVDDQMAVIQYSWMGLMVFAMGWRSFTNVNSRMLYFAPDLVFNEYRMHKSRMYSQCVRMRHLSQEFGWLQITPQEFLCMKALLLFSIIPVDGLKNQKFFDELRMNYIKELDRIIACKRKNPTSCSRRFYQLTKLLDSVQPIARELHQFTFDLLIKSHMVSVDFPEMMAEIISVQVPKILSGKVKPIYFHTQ

[6] = molecular target: T5, Androgen receptor (Homo sapiens); assay: Antagonist activity at human androgen receptor expressed in human HeLa cells assessed as inhibition of DHT-induced response after 40 hrs by luciferase/beta-galactosidase-based reporter gene assay; type: functional, cell-based
[7] = molecular target: T3, Glucocorticoid receptor (Homo sapiens); assay: Agonist activity at human Glucocorticoid receptor expressed in human HeLa cells assessed as DHT-induced response after 40 hrs by luciferase/beta-galactosidase-based reporter gene assay; type: functional, cell-based
[8] = molecular target: T6, 17-beta-hydroxysteroid dehydrogenase type 3 (Homo sapiens, UniProt P37058)
T6 sequence (P37058 whole entry): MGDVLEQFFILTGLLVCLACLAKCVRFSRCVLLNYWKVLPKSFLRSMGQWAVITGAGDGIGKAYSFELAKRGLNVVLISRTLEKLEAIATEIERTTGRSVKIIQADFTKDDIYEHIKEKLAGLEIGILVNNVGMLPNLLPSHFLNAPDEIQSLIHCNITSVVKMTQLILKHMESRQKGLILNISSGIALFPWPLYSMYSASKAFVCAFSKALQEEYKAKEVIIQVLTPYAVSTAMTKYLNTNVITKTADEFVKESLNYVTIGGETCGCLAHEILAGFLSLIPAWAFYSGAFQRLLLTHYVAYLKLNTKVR
Description: Inhibition of human recombinant 17-beta-HSD3 expressed in human HeLa cells using androstenedione as substrate preincubated for 30 mins prior substrate addition measured after 120 mins by spectrophotometry

[9] = molecular target: T1, Estrogen receptor (Homo sapiens); assay: Antagonist activity at human ERalpha receptor expressed in human HeLa cells assessed as inhibition of DHT-induced response after 40 hrs by luciferase/beta-galactosidase-based reporter gene assay; type: functional, cell-based

COc1ccc(N2C(=O)/C(=C/c3ccc(O)c(C)c3)OC2=S)cc1 was tested, and the Activity [1] was “inactive”, the inhibition [2] was “inactive” and the Activity [3] was “inactive”. The inhibition [4] was “inactive”, the Activity [5] was “inactive” and the Activity [6] was “inactive”. For the same compound, the Activity [7] was “inactive”, the IC50 [8] was 20 nM and the Activity [9] was “inactive”.

CC(=O)Nc1ccc(N2C(=O)O/C(=C\c3ccc(O)c(Br)c3)C2=O)cc1 was tested, and the Activity [1] was “inactive”, the inhibition [2] was “inactive” and the Activity [3] was “inactive”. For the same compound, the inhibition [4] was “inactive”, the Activity [5] was “inactive” and the Activity [6] was “inactive”. The Activity [7] was “inactive”, the IC50 [8] was 57 nM and the Activity [9] was “inactive”.

For C=CCN1C(=O)/C(=C/c2ccc(O)c(Br)c2)SC1=S, the Activity [1] was “inactive”, the inhibition [2] was “inactive” and the Activity [3] was “inactive”. For the same compound, the inhibition [4] was “inactive”, the Activity [5] was “inactive” and the Activity [6] was “inactive”. For the same compound, the Activity [7] was “inactive”, the IC50 [8] was 120 nM and the Activity [9] was “inactive”.

For COc1ccc(N2C(=O)/C(=C/c3ccc(O)c(OC)c3)OC2=S)cc1, the Activity [1] was “inactive”, the inhibition [2] was “inactive” and the Activity [3] was “inactive”. For the same compound, the inhibition [4] was “inactive”, the Activity [5] was “inactive” and the Activity [6] was “inactive”. The Activity [7] was “inactive”, the IC50 [8] was 270 nM and the Activity [9] was “inactive”.

For COc1ccccc1N1C(=O)/C(=C/c2ccc(O)c(Br)c2)OC1=S, the Activity [1] was “inactive”, the inhibition [2] was “inactive” and the Activity [3] was “inactive”. The inhibition [4] was “inactive”, the Activity [5] was “inactive” and the Activity [6] was “inactive”. The Activity [7] was “inactive”, the IC50 [8] was 60 nM and the Activity [9] was “inactive”.

O=C1/C(=C/c2ccc(O)c(Br)c2)OC(=S)N1c1ccc2c(c1)OCO2 was tested, and the Activity [1] was “inactive”, the inhibition [2] was “inactive” and the Activity [3] was “inactive”. For the same compound, the inhibition [4] was “inactive”, the Activity [5] was “inactive” and the Activity [6] was “inactive”. The Activity [7] was “inactive”, the IC50 [8] was 12 nM and the Activity [9] was “inactive”.

For COc1ccc(N2C(=O)/C(=C/c3cc(F)c(O)c(Cl)c3)OC2=S)cc1, the Activity [1] was “inactive”, the inhibition [2] was “inactive” and the Activity [3] was “inactive”. The inhibition [4] was “inactive”, the Activity [5] was “inactive” and the Activity [6] was “inactive”. The Activity [7] was “inactive”, the IC50 [8] was 1 nM and the Activity [9] was “inactive”.

With O=C1O/C(=C\c2ccc(O)c(Br)c2)C(=O)N1c1ccc(F)nc1 the Activity [1] was “inactive”, the inhibition [2] was “inactive” and the Activity [3] was “inactive”. For the same compound, the inhibition [4] was “inactive”, the Activity [5] was “inactive” and the Activity [6] was “inactive”. The Activity [7] was “inactive”, the IC50 [8] was 21 nM and the Activity [9] was “inactive”.

With COc1ccc(N2C(=O)/C(=C/c3ccc(O)c(Br)c3)SC2=S)cc1 the Activity [1] was “inactive”, the inhibition [2] was “inactive” and the Activity [3] was “inactive”. For the same compound, the inhibition [4] was “inactive”, the Activity [5] was “inactive” and the Activity [6] was “inactive”. The Activity [7] was “inactive” and the Activity [9] was “inactive”.

For COc1ccc(N2C(=O)/C(=C/c3ccc(O)c(Br)n3)OC2=S)cc1, the Activity [1] was “inactive”, the inhibition [2] was “inactive” and the Activity [3] was “inactive”. The inhibition [4] was “inactive”, the Activity [5] was “inactive” and the Activity [6] was “inactive”. For the same compound, the Activity [7] was “inactive”, the IC50 [8] was 42 nM and the Activity [9] was “inactive”.

With COc1ccc(N2C(=O)O/C(=C\c3ccc(O)c(Br)c3)C2=O)cc1 the Activity [1] was “inactive”, the inhibition [2] was “inactive” and the Activity [3] was “inactive”. The inhibition [4] was “inactive”, the Activity [5] was “inactive” and the Activity [6] was “inactive”. For the same compound, the Activity [7] was “inactive” and the Activity [9] was “inactive”.

In the case of O=C1/C(=C/c2ccc(O)c(Br)c2)OC(=S)N1c1ccc(Cl)cc1, the Activity [1] is reported as “inactive”, the inhibition [2] is reported as “inactive” and the Activity [3] is reported as “inactive”. The inhibition [4] was “inactive”, the Activity [5] was “inactive” and the Activity [6] was “inactive”. The Activity [7] was “inactive”, the IC50 [8] was 6 nM and the Activity [9] was “inactive”.
